# Results as given in patent US20020137929A1, “1 - (3-heterocyclylphenyl) isothiourea, -isourea, -guanidine and -amidine herbicidal agents” (Intellectual Property Department, BASF Aktiengesellschaft, priority 1998, published 2002).
# How the values were obtained:
# [1] = system: MOOVA (Monochoria); assay: Postemergence weed control under flooded paddy conditions; assay type: in vivo, Monochoria vaginalis; conditions: postemergence weeds, 3-4 weeks after treatment
# In short: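 With weeds 3 to 5 cm tall and rice at the 1.5 to 2.5 leaf stage, containers were flooded and water held 1.5 to 3 cm above soil. Compounds in 50/50 v/v aqueous/acetone went into the flood water at about 0.0313 to 0.500 kg/ha a.i. Effects were visually rated 0–9 against controls after three to four weeks in the greenhouse.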
# [2] = system: ECHORC (Watergrass (Calif.)); assay: Preemergence weed control under flooded paddy conditions; assay type: in vivo, Echinochloa oryzoides; conditions: rated 3-4 weeks after treatment
# In short: (§1)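 Flooded-pot preemergence screen with silt loam and seeds in the upper 0.5 cm. Dose about 0.0313 to 0.500 kg/ha, delivered into flood water; visual 0-9 score after 3 to 4 weeks.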
# [3] = system: CYPIR (Rice Flatsedge); assay: as above; assay type: in vivo, Cyperus iria; conditions: rated 3-4 weeks after treatment
# In short: as §1
# [4] = system: ABUTH (Velvetleaf); assay: Preemergence herbicidal evaluation; assay type: in vivo, Abutilon theophrasti; conditions: rated 4-5 weeks after treatment
# In short: (§2)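 Greenhouse preemergence test: seed-soil mix sown on ~1 inch soil; aqueous acetone spray at equivalent of ~0.0156–0.500 kg/ha; greenhouse-held and watered; scored 0–9 visually at 4–5 weeks.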
# [5] = system: SAGPY (Arrowhead (Pygmaea)); assay: Preemergence weed control under flooded paddy conditions; assay type: in vivo, Sagittaria pygmaea; conditions: rated 3-4 weeks after treatment
# In short: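 Silt loam, seeds in top 0.5 cm; flood held 1.5-3 cm; test cpd as acetone/water 50/50 into flood water, ~0.0313-0.500 kg/ha a.i.; greenhouse 3-4 wk; visual 0-9 score vs control.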
# [6] = system: TRZAWR (Wheat, Winter, cv Riband); assay: Preemergence herbicidal evaluation; assay type: in vivo, Triticum aestivum; conditions: rated 4-5 weeks after treatment
# In short: as §2
Structure (SMILES),Herbicidal rating MOOVA ([1]; rate 0.1160 kg/ha),Herbicidal rating MOOVA ([1]; rate 0.2310 kg/ha),Herbicidal rating MOOVA ([1]; rate 0.4630 kg/ha),Herbicidal rating ECHORC ([2]; 0.1160 kg/ha),Herbicidal rating ECHORC ([2]; 0.2310 kg/ha),Herbicidal rating ECHORC ([2]; 0.4630 kg/ha),Herbicidal rating CYPIR ([3]; 0.1160 kg/ha),Herbicidal rating CYPIR ([3]; 0.2310 kg/ha),Herbicidal rating CYPIR ([3]; 0.4630 kg/ha),ABUTH preemergence herbicidal rating ([4]; rate 0.0156 kg/ha),ABUTH preemergence herbicidal rating ([4]; rate 0.0313 kg/ha),ABUTH preemergence herbicidal rating ([4]; rate 0.0625 kg/ha),ABUTH preemergence herbicidal rating ([4]; rate 0.1250 kg/ha),ABUTH preemergence herbicidal rating ([4]; rate 0.2500 kg/ha),Herbicidal rating SAGPY ([5]; 0.1160 kg/ha),Herbicidal rating SAGPY ([5]; 0.2310 kg/ha),Herbicidal rating SAGPY ([5]; 0.4630 kg/ha),TRZAWR preemergence herbicidal rating ([6]; rate 0.0625 kg/ha),TRZAWR preemergence herbicidal rating ([6]; rate 0.1250 kg/ha),TRZAWR preemergence herbicidal rating ([6]; rate 0.2500 kg/ha),also measured
"CCOC(=O)CN1C(=O)CO/C1=N/c1cc(-n2c(=O)cc(C(F)(F)F)n(C)c2=O)c(F)cc1Cl [Compound 22, Ethyl 2-{{2-chloro-5-[3,6-dihydro-3-methyl-2,6-dioxo-4-(trifluoromethyl)-1(2H)-pyrimidinyl]-4-fluorophenyl}imino}-4-oxo-3-oxazolidineacetate]",9.0,9.0,9.0,6.0,9.0,9.0,0.0,0.0,5.0,9.0,9.0,9.0,9.0,9.0,4.0,4.0,5.0,1.0,5.0,7.0,TRZAWR preemergence herbicidal rating ([6]; rate 0.0156 kg/ha): 0.0; TRZAWR preemergence herbicidal rating ([6]; rate 0.0313 kg/ha): 0.0
"CN(C)N1C(=O)CSC1=Nc1cc(-n2c(=O)cc(C(F)(F)F)n(C)c2=O)c(F)cc1Cl [Compound 23, 3-{4-Chloro-5-{[3-(dimethylamino)-4-oxo-2-thiazolidinylidine]amino}-2-fluorophenyl}-1-methyl-6-(trifluoromethyl)-2,4(1H,3H)-pyrimidinedione]",9.0,9.0,9.0,4.0,4.0,4.0,0.0,0.0,0.0,0.0,1.0,9.0,9.0,9.0,0.0,0.0,3.0,1.0,5.0,7.0,TRZAWR preemergence herbicidal rating ([6]; rate 0.0156 kg/ha): 0.0; TRZAWR preemergence herbicidal rating ([6]; rate 0.0313 kg/ha): 0.0
"CCOC(=O)CN1C(=O)CN(C)C1=Nc1cc(-n2c(=O)cc(C(F)(F)F)n(C)c2=O)c(F)cc1Cl [Compound 25, Ethyl 2-{{2-chloro-5-[3,6-dihydro-3-methyl-2,6-dioxo-4-(trifluoromethyl)-1(2H)-pyrimidinyl]-4-fluorophenyl}imino}-3-methyl-5-oxo-1-imidazolidineacetate]",,,,,,,,,,,,9.0,9.0,9.0,,,,2.0,3.0,6.0,Herbicidal rating MOOVA ([1]; rate 0.0313 kg/ha): 9.0; Herbicidal rating MOOVA ([1]; rate 0.0625 kg/ha): 9.0; Herbicidal rating MOOVA ([1]; rate 0.1250 kg/ha): 9.0; Herbicidal rating MOOVA ([1]; rate 0.2500 kg/ha): 9.0; Herbicidal rating ECHORC ([2]; 0.0313 kg/ha): 4.0; Herbicidal rating ECHORC ([2]; 0.0625 kg/ha): 6.0; Herbicidal rating ECHORC ([2]; 0.1250 kg/ha): 7.0; Herbicidal rating ECHORC ([2]; 0.2500 kg/ha): 9.0; Herbicidal rating CYPIR ([3]; 0.0313 kg/ha): 0.0; Herbicidal rating CYPIR ([3]; 0.0625 kg/ha): 0.0; Herbicidal rating CYPIR ([3]; 0.1250 kg/ha): 0.0; Herbicidal rating CYPIR ([3]; 0.2500 kg/ha): 0.0; Preemergence herbicidal rating ABUTH ([4]; rate 0.0156 kg/ha): 9.0; Preemergence herbicidal rating ABUTH ([4]; rate 0.0313 kg/ha): 9.0; Herbicidal rating SAGPY ([5]; 0.0313 kg/ha): 0.0; Herbicidal rating SAGPY ([5]; 0.0625 kg/ha): 0.0; Herbicidal rating SAGPY ([5]; 0.1250 kg/ha): 5.0; Herbicidal rating SAGPY ([5]; 0.2500 kg/ha): 5.0; Preemergence herbicidal rating TRZAWR ([6]; rate 0.0156 kg/ha): 0.0; Preemergence herbicidal rating TRZAWR ([6]; rate 0.0313 kg/ha): 1.0
